For the test, the target named is T1, inducible NO-synthase (NO-synthase 2) (Homo sapiens, UniProt P35228).
T1 construct: positive control (induction of the enzyme): mixtures of γ-interferon (1 000 U/ml) and interleukin-1β (100 U/ml); endogenous in cells
The experiment in a line: Activity on inducible NO-synthase: decrease in nitrate and nitrite concentration after stimulation of NO-synthase 2 (test of Heck et al.). In kind it is cell-based. The note with it: for % inhibition: induction with γ-interferon 1 000 U/ml and interleukin-1β 100 U/ml, nitrites and nitrates measured. The protocol: The activity of lipochroman-6 on inducible NO-synthase was evaluated in the test described by Heck et al. (J. B. C., Vol. 267, No. 30, 21277–21280, Oct. 25, 1992).
In order to determine the activity of the product to be tested, the amount of stable NO reaction products (nitrites and nitrates) is measured using the nitric calorimetric assay kit sold by the company Boehringer under the reference 1756.28.
The lipochroman-6 was tested at the concentrations of 0.005% and 0.01% (weight/volume) in ethanol.

T1 sequence (P35228 whole entry, species assumed): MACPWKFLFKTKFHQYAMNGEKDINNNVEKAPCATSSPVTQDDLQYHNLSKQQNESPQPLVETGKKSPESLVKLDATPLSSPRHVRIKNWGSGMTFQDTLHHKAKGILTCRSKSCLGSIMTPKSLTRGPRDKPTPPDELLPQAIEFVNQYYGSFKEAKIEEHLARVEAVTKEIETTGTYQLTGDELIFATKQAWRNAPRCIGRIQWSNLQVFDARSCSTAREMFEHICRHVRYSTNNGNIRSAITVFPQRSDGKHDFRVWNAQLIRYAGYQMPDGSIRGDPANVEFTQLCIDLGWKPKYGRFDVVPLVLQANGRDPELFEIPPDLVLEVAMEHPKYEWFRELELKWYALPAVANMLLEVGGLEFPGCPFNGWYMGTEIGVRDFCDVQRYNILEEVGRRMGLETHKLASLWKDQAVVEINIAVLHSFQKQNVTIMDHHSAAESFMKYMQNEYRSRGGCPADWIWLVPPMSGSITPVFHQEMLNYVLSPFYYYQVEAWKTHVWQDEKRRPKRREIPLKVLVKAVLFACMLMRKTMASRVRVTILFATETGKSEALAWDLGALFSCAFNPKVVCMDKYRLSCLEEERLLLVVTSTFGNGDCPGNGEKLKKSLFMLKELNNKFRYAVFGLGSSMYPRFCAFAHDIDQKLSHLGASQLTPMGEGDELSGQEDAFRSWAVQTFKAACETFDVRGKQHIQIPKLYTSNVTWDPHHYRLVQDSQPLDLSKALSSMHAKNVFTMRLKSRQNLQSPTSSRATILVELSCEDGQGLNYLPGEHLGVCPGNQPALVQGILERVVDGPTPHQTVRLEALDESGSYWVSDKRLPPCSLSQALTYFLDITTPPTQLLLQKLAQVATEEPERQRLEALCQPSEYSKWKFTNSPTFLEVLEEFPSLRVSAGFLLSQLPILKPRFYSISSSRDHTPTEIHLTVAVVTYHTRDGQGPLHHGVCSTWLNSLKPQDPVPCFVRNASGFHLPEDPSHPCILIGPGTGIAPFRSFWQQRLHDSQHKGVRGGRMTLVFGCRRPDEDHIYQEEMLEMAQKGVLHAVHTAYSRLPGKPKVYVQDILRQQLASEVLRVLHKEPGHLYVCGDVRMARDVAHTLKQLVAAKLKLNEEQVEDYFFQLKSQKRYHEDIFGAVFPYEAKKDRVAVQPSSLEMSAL

Take `COc1cc2c(cc1O)CCC(C)(C)O2` [Lipochroman-6, lipochroman-6]: the “effect on inducible NO-synthase (in words)” value is “inhibitory effect”. The “% inhibition” value (lipochroman-6 at 0.005% (weight/volume) in ethanol) turned out to be 38%. Moreover, the “% inhibition” value (lipochroman-6 at 0.01% (weight/volume) in ethanol) was determined as 95%.

As usually defined, the % inhibition is the drop in the measured response relative to a control, in per cent. Higher therefore signals strong suppression.

For the origin of these results see US7008630B2, “Lipochroman-6 as NO-synthase inhibitor and uses” (L' Oreal, priority 2000, dated 2006).
